How the values were obtained:
[1] = Water solubility of the free base; assay type: physicochemical; conditions: free base form, viscous oil
Description: Aqueous solubility was determined by suspending sufficient compound in water to give a maximum final concentration of ≥10 mg/mL of the parent free-form of the compound. The suspension was equilibrated at 25° C. for 24 h, and then the pH was measured. The suspension was then filtered through a glass fiber C filter into a 96 well plate. The filtrate was then diluted by a factor of 101. Quantitation was by HPLC with reference to a standard solution of approximately 0.1 mg/mL in DMSO. Different volumes of the standard, diluted and undiluted sample solutions were injected. The solubility was calculated using the peak areas determined by integration of the peak found at the same retention time as the principal peak in the standard injection. If there was sufficient solid in the filter plate, the XRPD was collected.

α4β2 nicotinic subtype = α4β2 nicotinic subtype (Homo sapiens, UniProt P17787+P43681); conditions: α4β2 over α7, ganglionic and muscle subtypes; background statement, no test described; cited from earlier work
[2] = Stability of the free base; assay type: physicochemical; conditions: free base form, viscous oil

Sequence of α4β2 nicotinic subtype (P43681 29-627 limits assumed): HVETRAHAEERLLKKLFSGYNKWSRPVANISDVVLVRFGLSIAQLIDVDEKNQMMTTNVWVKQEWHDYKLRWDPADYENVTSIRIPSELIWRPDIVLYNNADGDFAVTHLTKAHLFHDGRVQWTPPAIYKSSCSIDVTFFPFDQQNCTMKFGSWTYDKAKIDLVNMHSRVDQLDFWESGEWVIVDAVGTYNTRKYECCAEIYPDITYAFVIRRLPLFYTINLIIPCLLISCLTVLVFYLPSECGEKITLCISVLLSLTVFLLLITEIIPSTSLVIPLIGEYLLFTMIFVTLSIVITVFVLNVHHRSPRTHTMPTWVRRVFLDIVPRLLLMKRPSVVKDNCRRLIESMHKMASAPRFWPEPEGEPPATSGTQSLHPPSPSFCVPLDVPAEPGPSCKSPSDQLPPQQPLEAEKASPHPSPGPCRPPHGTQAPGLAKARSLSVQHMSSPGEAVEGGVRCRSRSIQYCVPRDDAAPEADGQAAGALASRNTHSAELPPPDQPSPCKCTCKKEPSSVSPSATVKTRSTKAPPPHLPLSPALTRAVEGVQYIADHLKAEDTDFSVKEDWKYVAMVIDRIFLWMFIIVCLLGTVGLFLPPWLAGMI
Sequence of α4β2 nicotinic subtype (P17787 26-502): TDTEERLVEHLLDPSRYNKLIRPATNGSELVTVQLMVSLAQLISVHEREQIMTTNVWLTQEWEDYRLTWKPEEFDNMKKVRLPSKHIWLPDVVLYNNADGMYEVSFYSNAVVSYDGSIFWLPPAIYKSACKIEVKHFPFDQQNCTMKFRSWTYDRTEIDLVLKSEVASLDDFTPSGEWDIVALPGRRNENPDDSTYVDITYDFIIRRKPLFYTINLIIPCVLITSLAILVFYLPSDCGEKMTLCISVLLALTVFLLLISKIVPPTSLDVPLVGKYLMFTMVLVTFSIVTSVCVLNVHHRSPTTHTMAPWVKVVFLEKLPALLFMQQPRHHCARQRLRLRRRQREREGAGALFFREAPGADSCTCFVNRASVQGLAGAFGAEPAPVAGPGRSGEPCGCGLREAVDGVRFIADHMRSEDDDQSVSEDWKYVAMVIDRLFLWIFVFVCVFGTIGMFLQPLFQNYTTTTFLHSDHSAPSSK

Structure (SMILES): C(=C\[C@H]1CCNC1)/c1cncnc1 [(R)-5-((E)-2-pyrrolidin-3-ylvinyl)pyrimidine]
- water solubility [1]: limited
- NNR agonist selectivity (α4β2 nicotinic subtype): selectivity for the α4β2 nicotinic subtype over other nicotinic subtypes
- stability [2]: limited
